Laboratory results from patent US6610289B2, “Mutated herpes simplex virus type 1 thymidine kinases and uses thereof” (The Board of Trustees of the University of Arkansas, priority 1998, dated 2003).
Like-named read-outs stand apart in the source and are kept apart here.

What was measured:
HSV-1 TK [1] = experiment: Substrate screen: phosphorylation of thymidine, TMP, GCV, ACV, dC, AZT by partially purified HSV-1 TKs; format: biochemical, herpes simplex virus type 1
Method: The activity of the purified HSV-1 TK was determined using the following standard reaction mixture for thymidine as a substrate (12): 3 μg of protein, 4 μM [^3H-methyl]thymidine (0.1 mCi/mmol), 20 mM potassium phosphate, pH 7.6, 1 mM DTT, 5 mM ATP, 5 mM MgCl2, 25 mM NaF, 40 mM KCl, and 0.5 mg/ml BSA in a total volume of 25 μl for 10 minutes at 37° C. To identify phosphorylated products, 20 μl of the reaction mixture was loaded onto a DE-81 filter and dried, washed once in 1 mM ammonium formate, twice more in 95% ethanol, and counted for radioactivity (12). Radioactivity was determined using an LKB 1214 Rackbeta liquid scintillation counter and corrected for background using controls with enzyme incubated in the absence of ATP. For TMPK activity, 20 μM [^3H-methyl]TMP was substituted for thymidine in the above assay mixture, and [^3H]TDP product was determined by separation from [^3H]TMP on thin layer PEI-cellulose plates developed in 0.35M LiCl (21). Amount of product converted to TDP was quantitated by scintillation counting of the excised TMP and TDP spots. The filter binding assay was used to quantitate the phosphorylation of [^3H]dC (200) μM and [^3H]AZT (200 μM) with the four enzymes. To compare relative enzymatic activities for [^3H]GCV (50 μM) and [^3H]ACV (50 μM), reactions were loaded onto small DE-52 columns packed in Pasteur pipettes as previously described (22).
As an initial screen for activity, each expressed HSV-1 TK enzyme was assayed for phosphorylation of the following substrates: thymidine (4 μM), TMP (20 μM), ACV (50 μM), GCV (50 μM), deoxycytidine (dC, 200 μM), or 3′-azido-2′,3′dideoxythymidine (AZT, 200 μM). Enzymatic conditions for optimal wild-type HSV-1 TK activities were utilized, thus results presented in Table 1 for each substrate were normalized to 100% values for comparative purposes. As expected, the wild-type Gln-125 HSV-1 TK efficiently phosphorylated each of these substrates. For each mutant, there was a striking decrease in their ability to phosphorylate pyrimidine nucleosides, and minimal TMPK activity for the TMP substrate.

HSV-1 TK [2] = biological target: T1, HSV-1 TK (Human herpesvirus 1, UniProt P0DTH5, Q125D); format: biochemical, herpes simplex virus type 1; conditions: substrate GCV
T1 construct: made in house; host or cells: E. coli BL21SY211 (pET-9a derived pET-TK plasmids)
T1 sequence (P0DTH5 1-376 Q125D): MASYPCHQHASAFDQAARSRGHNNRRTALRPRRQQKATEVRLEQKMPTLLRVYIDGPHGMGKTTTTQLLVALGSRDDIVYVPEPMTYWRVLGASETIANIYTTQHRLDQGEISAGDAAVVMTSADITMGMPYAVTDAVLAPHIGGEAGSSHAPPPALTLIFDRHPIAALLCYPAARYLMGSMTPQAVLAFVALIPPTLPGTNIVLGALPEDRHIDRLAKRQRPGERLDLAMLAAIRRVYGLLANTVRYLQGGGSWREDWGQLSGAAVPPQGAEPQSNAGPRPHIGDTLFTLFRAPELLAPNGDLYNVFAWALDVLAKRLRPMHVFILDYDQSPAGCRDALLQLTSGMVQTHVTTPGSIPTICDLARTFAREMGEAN
Method: (§1) For determination of Km values of thymidine and GCV for the four enzymes, the filter binding assay was utilized. The basic reaction components were as above, and the following enzyme concentrations, substrate ranges and times were used under linear initial velocity conditions: for [^3H]thymidine: parent Gln-125TK: 0.1 μg TK, 0.1-4 μM, 10 min; Asn-125TK: 0.2 μg TK, 0.25-10 μM, 15 min; Asp-125TK: 4 μg TK, 0.1-2.5 μM, 30 min; Glu-125TK 0.5 μg TK, 0.5-2.5 μM, 15 min. For [^3H]GCV: parent Gln-125TK: 2 μg TK, 5-100 μM, 15 min; Asn-125TK: 0.6 μg TK, 0.5-15 μM, 15 min; Asp-125TK: Not determined; Glu-125TK 4 μg TK, 50-1000 μM, 25 min. Each reaction was done in triplicate. For calculation of kinetic constants, non-linear regression Michaelis-Menten analyses were done using PSI-PLOT version 5.0 (Poly Software International).
(§2) Unlike the substrate screening assays presented in Table 1, linear velocity conditions for each enzyme and substrate were established prior to Km determinations.

HSV-1 TK [3] = format: biochemical, herpes simplex virus type 1; conditions: substrate thymidine
Method: as §1, §2

HCT-116 cells = experiment: MTT cell viability, sensitivity to GCV killing, HCT-116 cell lines expressing HSV-1 TKs; format: cell-based, human; conditions: HCT-116, GCV 0-5 μM, 4 days, FIG. 3B
Method: Cells were plated in triplicate and exposed to 0, 0.05, 0.5 or 5 μM GCV for four days. Cell viabilities were determined using MTT dye. […] FIG. 3A: NIH3T3 cell lines, FIG. 3B: HCT-116 cell lines; parental cells (noTK, dark bands); Asp125TK (Asp-#, brick band); Glu-125TK (Glu-#, cross-hatch bands); Asn-125TK (Asn-#, gray bands); wild-type HSV-1 TK (WT-#, striped bands).
A Moloney murine leukemia virus derived plasmid for the expression of HSV-TK, termed pLENTK, has been previously constructed (24). A unique BspEI-MluI restriction fragment within the HSV-TK sequence of pLENTK contains the Gln-125 mutation site. This fragment was removed from wild-type plasmid and replaced with the analogous fragments encoding each mutant. […] Along with wild-type HSV-1 TK plasmid, each mutant-TK plasmid was transfected individually into the murine fibroblast cell line, NIH 3T3, and the human colon tumor cell line, HCT-116, using lipofectin reagent (GIBCO/BRL) (2 μg plasmid, 14 μl lipid per 1×10^6 cells). Cells were maintained in RPMI 1640 media and selected with G418 (200 μg/ml for 2 weeks) as previously described (24). At least eight individual G418 resistant cell clones were picked and grown up for further characterization. Each clone was screened initially for growth inhibition by 25 μM GCV. Those clones that were sensitive were further analyzed for HSV-TK protein expression by Western blot analysis with a polyclonal, rabbit anti-HSV-TK antibody (a gift from Dr. Margaret Black). For each clone, cell numbers were normalized to 1×10^6, and equal protein loading was confirmed for each sample by gel staining. Blotted HSV-1 TK protein bands were visualized on film using ECL chromophore reagents (Amersham). For analysis of GCV sensitivity of different clones, NIH3T3 and HCT-116 cell sets were seeded in 96 well plates in 0.1 ml media (15,000 cells/well). The next day, a dose range of GCV (0.005 to 5 mM, n=3) was added in 0.1 ml media. After 4 days, MTT ([…]) was added for 1.5 hours, followed by DMSO solubilization of the cells and absorbance reading at 540 nm (25).
cDNA for each mutant was incorporated into a Moloney murine leukemia virus plasmid (24). The plasmids for wild-type HSV-1 TK and each mutant were individually transfected into either NIH3T3 cells or the human colon tumor cell line, HCT-116. Following drug selection in G418, individual cell clones were evaluated for sensitivity to GCV and relative levels of HSV-1 TK expression. Using an HSV-1 TK antibody and extracts normalized by protein and cell number, the relative expression levels of HSV-1 TK in each cell clone were determined.

Asp-125
Product formation ACVMP (HSV-1 TK [1]; substrate ACV 50 μM): 14 % of wild-type Gln-125 | Product formation AZTMP (HSV-1 TK [1]; substrate AZT 200 μM): 8 % of wild-type Gln-125 | Product formation GCVMP (HSV-1 TK [1]; substrate GCV 50 μM): 0.7 % of wild-type Gln-125 | Product formation TDP (TMPK activity) (HSV-1 TK [1]; substrate TMP 20 μM): 4 % of wild-type Gln-125 | Product formation dCMP (HSV-1 TK [1]; substrate dC 200 μM): >0.1 % of wild-type Gln-125 | Product formation TMP (HSV-1 TK [1]; substrate thymidine 4 μM): 0.5 % of wild-type Gln-125 | Ganciclovir phosphorylation kinetics (in words) (HSV-1 TK [2]): poorly phosphorylate ganciclovir, but with non-linear kinetics | Ganciclovir phosphorylation kinetics (in words) (HSV-1 TK [2]; listed as Asp-125TK): no linear velocity conditions could be established | Change of kcat for thymidine relative to wild-type (in words) (HSV-1 TK [3]): doubled | Increase of Km for thymidine relative to wild-type enzyme (HSV-1 TK [3]): ~6000 fold | kcat thymidine (HSV-1 TK [3]): 0.11 s⁻¹ | Km (HSV-1 TK [3]; read-out: Km thymidine): 6 mM | Dose dependent cell killing by GCV (cell viability, MTT) (HCT-116 cells): little effect on cell viability
